Experiments:
Type in all cases: in vivo
[1] = test system: corn plants (Zea mays var. Sunglow); assay: Pot study, phytotoxicity on corn (Example 1); settings: spray 0.125-1.0 mg thaxtomin A/mL, three weeks after treatment
Description: In a pot study test in greenhouse conditions, 6-inch corn plants (Zea mays var. Sunglow) were sprayed with increasing concentrations of thaxtomin A mixed in a carrier 4% ethanol, 0.02% polysorbate 60 POE (20) sorbitan monostearate solution. The spraying solutions contained 0.125, 0.25, 0.5 and 1.0 mg thaxtomin A/mL, and the plants are sprayed until total coverage. Each treatment was done in three replicates, and a control solution consists of water with 4% ethanol and 0.02% polysorbate 60 POE (20) sorbitan monostearate as a surfactant. Prior to and after treatments, plants are grown in a greenhouse under artificial lights (12-h light/dark cycle) at 25° C.
Plants are evaluated in one-week intervals starting at 7 days after treatment.

crabgrass = assay: Greenhouse synergy test MBI-005 + field crop herbicides (Example 11); settings: 14 days
Description: […] other herbicides commonly used for field crops, glyphosate, glufosinate, synthetic version of bialaphos, and mesotrione were also tested for synergy with MBI-005 on crabgrass and ragweed.
There were 3 replicates per treatment which were sprayed with approximately ⅔ ml per replicate. The treatments were completely randomized and kept in a greenhouse at 25° C. The efficacy was rated at 7 and 14 days post treatment.

[2] = test system: Barnyardgrass (Echinochloa crus-gali); assay: Pre-emergence test of MBI-005, lab (Example 12); settings: pre-emergent; further: ranges in brackets are in %
Description: (§1) To further describe the spectrum of pre-emergence activity, tests were conducted in laboratory and field conditions. In laboratory testing, 35 seeds were placed on a ring of blotter paper inside a 3 cm petri dish and supplied with 4 ml of MBI-005 (≦0.1 mg MBI-005/ml). Water was used as a negative control and oryzalin applied as a positive control. Petri dishes were randomly placed in a growth room at 25° C. and 50% RH. Treatments were replicated three times and germinated seeds were counted 7 and 14 days after application; water was added as necessary to maintain moisture levels inside each petri dish.

[3] = test system: Bearded Sprangletop (Leptochloa fascicularis); assay: Pre-emergence test of MBI-005, lab (Example 12); settings: pre-emergent; further: ranges in brackets are in %
Description: as §1

[4] = test system: Black nightshade (Solanum nigrum); assay: Pre-emergence test of MBI-005, lab (Example 12); settings: pre-emergent; further: ranges in brackets are in %
Description: as §1

[5] = test system: Bristlegrass/Foxtail (Setaria viridis); assay: Pre-emergence test of MBI-005, lab (Example 12); settings: pre-emergent; further: ranges in brackets are in %
Description: as §1

[6] = test system: Buckhorn plantain (Plantago lanceolata); assay: Pre-emergence test of MBI-005, lab (Example 12); settings: pre-emergent; further: ranges in brackets are in %
Description: as §1

[7] = test system: Canarygrass (Phalaris minior); assay: Pre-emergence test of MBI-005, lab (Example 12); settings: pre-emergent; further: ranges in brackets are in %
Description: as §1

[8] = test system: Clover (Trifolium repens); assay: Pre-emergence test of MBI-005, lab (Example 12); settings: pre-emergent; further: ranges in brackets are in %
Description: as §1

[9] = test system: Fall Panicum (Panicum dichotomiflorum); assay: Pre-emergence test of MBI-005, lab (Example 12); settings: pre-emergent; further: ranges in brackets are in %
Description: as §1

[10] = test system: Horseweed (R) (Conyza canadensis); assay: Pre-emergence test of MBI-005, lab (Example 12); settings: pre-emergent, herbicide resistant population; further: ranges in brackets are in %
Description: as §1

[11] = test system: Lambsquarters (Chenopodium album); assay: Pre-emergence test of MBI-005, lab (Example 12); settings: pre-emergent; further: ranges in brackets are in %
Description: as §1

[12] = test system: Late watergrass (R) (Echinochloa phyllopogon); assay: Pre-emergence test of MBI-005, lab (Example 12); settings: pre-emergent, herbicide resistant population; further: ranges in brackets are in %
Description: as §1

[13] = test system: Mustard (Brassica juncea); assay: Pre-emergence test of MBI-005, lab (Example 12); settings: pre-emergent
Description: as §1

[14] = test system: Palmer pigweed (R) (Amaranthus palmerii); assay: Pre-emergence test of MBI-005, lab (Example 12); settings: pre-emergent, herbicide resistant population; further: ranges in brackets are in %
Description: as §1

[15] = test system: Ragweed (Ambrosia artemisifolia); assay: Pre-emergence test of MBI-005, lab (Example 12); settings: pre-emergent; further: ranges in brackets are in %
Description: as §1

[16] = test system: Ryegrass (Lolium perenne); assay: Pre-emergence test of MBI-005, lab (Example 12); settings: pre-emergent; further: ranges in brackets are in %
Description: as §1

[17] = test system: Bindweed (Convolvulus arvensis); assay: Post-emergence test of MBI-005, lab (Example 13)
Description: (§2) To further describe the spectrum of post-emergence activity, tests were conducted in laboratory and field conditions. For laboratory testing, 3-10 plants (depending on the species) at the 1-2 leaf stage plants in 2.5 cm square pots containing Sunshine Mix No. 2 planting media were sprayed at 1 mg MBI-005/mL at a rate of 40 gal/A using a cabinet track sprayer. Negative controls were sprayed with water and positive controls with glufosinate. Pots were randomly placed in a growth room at 25° C. and 50% RH, and watered as necessary. Treatments were replicated five times and evaluated at 7 and 14 days for visual % damage, with 0% indicating no damage and 100% indicating plant death.

[18] = test system: Dandelion (Taraxacum oficinale); assay: Post-emergence test of MBI-005, lab (Example 13)
Description: as §2

[19] = test system: Lambsquarters (Chenopodium album); assay: Post-emergence test of MBI-005, lab (Example 13)
Description: as §2

[20] = test system: Mallow (Malva parviflora); assay: Post-emergence test of MBI-005, lab (Example 13)
Description: as §2

[21] = test system: Mustard (Brassica juncea); assay: Post-emergence test of MBI-005, lab (Example 13)
Description: as §2

[22] = test system: Redstem filaree (Erodium cicutarium); assay: Post-emergence test of MBI-005, lab (Example 13)
Description: as §2

[23] = test system: Sunflower (Helianthus anuus); assay: Post-emergence test of MBI-005, lab (Example 13)
Description: as §2

[24] = test system: Yellow nutsedge (Cyperus esculentus); assay: Post-emergence test of MBI-005, lab (Example 13)
Description: as §2

barnyard grass = assay: Post-emergent MBI-005 + rice herbicides on barnyard grass (Example 18); settings: 14 days
Description: Ten seedlings in 2.5 cm square pots containing plant growth mix were sprayed to full coverage using a hand sprayer. Negative controls were sprayed with water. Pots were randomly placed in a growth room at 25° C. and 50% RH, and watered as necessary. Treatments were replicated three times and evaluated at 7 and 14 days for visual % damage, with 0% indicating no damage and 100% indicating plant death.
Synergistic effect were noted between MBI-005 and all three rice herbicides, 14 days after treatment. Synergy was calculated as the ratio of observed (E) to expected (E/Ee) percent control using Colby's formula.

In the case of `CN1C(=O)[C@](O)(Cc2cccc(O)c2)N(C)C(=O)[C@@H]1Cc1c[nH]c2cccc([N+](=O)[O-])c12` [thaxtomin A], the phytotoxicity [1] is reported as “no phytotoxicity is observed”, the “% Control MBI-005” value (crabgrass; MBI-005 0.125 mg/mL (glufosinate line)) is reported as 20.0% and the “% Control MBI-005” value (crabgrass; MBI-005 0.125 mg/mL (glyphosate line)) is reported as 28.3%. For the same compound, the “Rating at 0.1 mg/ml (Reduction of Germination)” value [2] was “++++ (95-100)”, the “Rating at 0.1 mg/ml (Reduction of Germination)” value [3] was “++++ (95-100)” and the “Rating at 0.1 mg/ml (Reduction of Germination)” value [4] was “++++ (95-100)”. For the same compound, the “Rating at 0.1 mg/ml (Reduction of Germination)” value [5] was “++++ (95-100)”, the “Rating at 0.1 mg/ml (Reduction of Germination)” value [6] was “++++ (95-100)” and the “Rating at 0.1 mg/ml (Reduction of Germination)” value [7] was “++++ (95-100)”. The “Rating at 0.1 mg/ml (Reduction of Germination)” value [8] was “++++ (95-100)”, the “Rating at 0.1 mg/ml (Reduction of Germination)” value [9] was “++++ (95-100)” and the “Rating at 0.1 mg/ml (Reduction of Germination)” value [10] was “++++ (95-100)”. The “Rating at 0.1 mg/ml (Reduction of Germination)” value [11] was “+++ (85-94)”, the “Rating at 0.1 mg/ml (Reduction of Germination)” value [12] was “++++ (95-100)” and the “Rating at 0.1 mg/ml (Reduction of Germination)” value [13] was “++++ (95-100)”. The “Rating at 0.1 mg/ml (Reduction of Germination)” value [14] was “+++ (85-94)”, the “Rating at 0.1 mg/ml (Reduction of Germination)” value [15] was “++++ (95-100)” and the “Rating at 0.1 mg/ml (Reduction of Germination)” value [16] was “++++ (95-100)”. The “Rating at 1 mg/ml (Post-Emergence % control)” value [17] was “+ (0-50)”, the “Rating at 1 mg/ml (Post-Emergence % control)” value [18] was “++ (51-80)” and the “Rating at 1 mg/ml (Post-Emergence % control)” value [19] was “+++ (81-90)”. The “Rating at 1 mg/ml (Post-Emergence % control)” value [20] was “+ (0-50)”, the “Rating at 1 mg/ml (Post-Emergence % control)” value [21] was “++++ (91-100)” and the “Rating at 1 mg/ml (Post-Emergence % control)” value [22] was “++ (51-80)”. The “Rating at 1 mg/ml (Post-Emergence % control)” value [23] was “++ (51-80)”, the “Rating at 1 mg/ml (Post-Emergence % control)” value [24] was “+ (0-50)” and the “% Control MBI-005” value (barnyard grass; MBI-005 12.5% of the label rate (Penoxsulam line)) was 17.5%. The “% Control MBI-005” value (barnyard grass; MBI-005 25% of the label rate (Bispyribac-sodium line)) was 41.7%.

Reference: patent publication US9066516B2, “Uses of thaxtomin and thaxtomin compositions as herbicides” (priority 2008, dated 2015)
